Test system: non-malignant BJ fibroblasts
Assay: in vitro transwell migration assay
Assay type: cell-based
Settings: 250 ppm CO
Protocol: Migration of different cancer cells under control air or 250 ppm CO treatment with or without supplement of 30 µM hemin was determined using in vitro transwell migration chamber with a serum gradient. Indicated cell lines were seeded into the transwell inserts. 16 hours later, cells on the top of the upper chambers were removed, and cells on the bottom surface of the transwell inserts were fixed, stained with crystal violet, and counted from eight randomly picked fields in three independent experiments. Error bars represent SEM. *: P < 0.05, two-sided t-test. Scale bar, 100 µm. […] Cells were seeded in the upper chamber of 8-µm porous polycarbonate membranes with DMEM containing 0% or 1% FBS, 0.2 mM L-glutamine, 1% penicillin/streptomycin. The lower chambers were filled with DMEM containing 10% or 20% FBS, 0.2 mM L-glutamine, and 1% penicillin/streptomycin (please see Table 1).
6.5 mm Transwell with 8.0 µm Pore Polycarbonate Membrane Insert (Corning, NY, Cat. No. 3422) was used for the cell migration assay (FIG. 1J). After 16 hours of incubation, cells migrated to the opposite side of the upper chambers were fixed with 4% paraformaldehyde, stained with 0.2% crystal violet for 30 min and counted in five fields under × 20 magnification. In parallel, cells were seeded on 24-well plates for proliferation assay. […] The optical density was measured at 595 nm (OD595). […]

For `[C-]#[O+]` [CO, Carbon monoxide], the migration was “only slightly reduced”.

Source: patent US20230346831A1, “METHODS FOR TREATING […] USING LOW DOSE CARBON MONOXIDE” (priority 2020, published 2023)
